This note sets out measurements from ChEMBL document CHEMBL1130590, “Aryl sulfonamides as selective PDE4 inhibitors” (Bioorg Med Chem Lett, 1998).

In assay [1] the target is T1, Phosphodiesterase 4 (Homo sapiens, UniProt P27815+Q08499+Q07343+Q08493). Put plainly: In vitro binding activity towards catalytic site of phosphodiesterase 4. The format is protein assay.
The target of assay [2] is T1, Phosphodiesterase 4. The experiment in a line: Binding activity towards Rolipram binding site of phosphodiesterase 4. Type of assay: protein assay.
Assay [3] concerns the target T1, Phosphodiesterase 4. Put plainly: Ratio of binding activity at catalytic site to Rolipram binding site of PDE4. Type of assay: protein assay.
The target of assay [4] is T1, Phosphodiesterase 4. Put plainly: Inhibition of Rolipram binding to phosphodiesterase 4 at 100 uM. The format is protein assay.
The target in assay [5] is T1, Phosphodiesterase 4. Put plainly: Binding activity towards Rolipram binding site of phosphodiesterase 4 at concentration 10 uM. The format is protein assay.
Assay [6] concerns the target T1, Phosphodiesterase 4. The experiment in a line: Inhibition of phosphodiesterase 4. Type of assay: protein assay.
Assay [7] has as its target T1, Phosphodiesterase 4. Put plainly: Inhibition of phosphodiesterase 4 at 20 uM. Type of assay: protein assay.
Assay [8] addresses cGMP-dependent 3',5'-cyclic phosphodiesterase (Homo sapiens) (UniProt O00408). As to conditions: 200 uM.
Assay [9] concerns the target T2, Phosphodiesterase 1 (Homo sapiens, UniProt P54750+Q01064+Q14123). The experiment in a line: Inhibition of phosphodiesterase 1 at 20 uM. Type of assay: protein assay.
Assay [10] addresses Phosphodiesterase 3 (Homo sapiens) (UniProt Q14432+Q13370). The experiment in a line: Inhibition of phosphodiesterase 3 at 200 uM. The format is protein assay.
The target of assay [11] is cGMP-dependent 3',5'-cyclic phosphodiesterase (Homo sapiens) (UniProt O00408). Put plainly: Inhibition of phosphodiesterase 2 at 200 uM.
Assay [12] deals with cGMP-specific 3',5'-cyclic phosphodiesterase (Homo sapiens) (UniProt O76074). The experiment in a line: Inhibition of phosphodiesterase 5 at 200 uM.
Assay [13] has as its target T2, Phosphodiesterase 1. The experiment in a line: Inhibition of phosphodiesterase 1 at 200 uM. The format is protein assay.
Assay [14] deals with T1, Phosphodiesterase 4. Put plainly: Inhibition of Rolipram binding to phosphodiesterase 4 at 20 uM. Type of assay: protein assay.
In assay [15] the target is T1, Phosphodiesterase 4. The experiment in a line: Inhibition of phosphodiesterase 4 at 200 uM. The format is protein assay.
Assay [16] addresses T1, Phosphodiesterase 4. The experiment in a line: Inhibition of Rolipram binding to phosphodiesterase 4 at 1 uM. The format is protein assay.
The target in assay [17] is T1, Phosphodiesterase 4. Put plainly: Inhibition of Rolipram binding to phosphodiesterase 4. As to conditions: concentration not given here. The format is protein assay.

cGMP-dependent 3',5'-cyclic phosphodiesterase (Homo sapiens), sequence (O00408 whole entry): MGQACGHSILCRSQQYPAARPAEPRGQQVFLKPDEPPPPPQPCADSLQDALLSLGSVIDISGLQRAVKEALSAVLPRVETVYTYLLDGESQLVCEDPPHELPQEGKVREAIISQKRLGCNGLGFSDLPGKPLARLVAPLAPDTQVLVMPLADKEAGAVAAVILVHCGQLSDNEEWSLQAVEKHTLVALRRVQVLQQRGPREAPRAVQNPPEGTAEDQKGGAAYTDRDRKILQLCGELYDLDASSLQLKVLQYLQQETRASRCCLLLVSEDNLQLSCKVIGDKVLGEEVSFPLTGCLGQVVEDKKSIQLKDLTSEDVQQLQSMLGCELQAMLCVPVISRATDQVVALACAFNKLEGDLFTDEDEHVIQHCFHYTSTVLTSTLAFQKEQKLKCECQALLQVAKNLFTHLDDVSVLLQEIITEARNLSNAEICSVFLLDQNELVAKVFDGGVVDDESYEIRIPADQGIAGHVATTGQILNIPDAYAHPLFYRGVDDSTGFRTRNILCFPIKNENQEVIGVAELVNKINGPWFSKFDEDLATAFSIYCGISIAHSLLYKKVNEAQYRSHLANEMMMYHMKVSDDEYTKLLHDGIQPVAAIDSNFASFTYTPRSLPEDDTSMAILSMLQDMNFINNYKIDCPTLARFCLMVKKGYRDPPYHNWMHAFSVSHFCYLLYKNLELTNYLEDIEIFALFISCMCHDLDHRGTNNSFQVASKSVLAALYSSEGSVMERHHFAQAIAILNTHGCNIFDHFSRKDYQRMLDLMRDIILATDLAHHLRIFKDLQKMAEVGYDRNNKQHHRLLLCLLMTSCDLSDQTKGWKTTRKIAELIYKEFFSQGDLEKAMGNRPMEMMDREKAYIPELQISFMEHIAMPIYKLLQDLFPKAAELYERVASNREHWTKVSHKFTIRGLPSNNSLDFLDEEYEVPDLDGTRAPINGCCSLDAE

In the case of `COc1ccc(S(=O)(=O)N(CCC#N)CC2CCCO2)cc1OC` (stereo unspecified), the IC50 (as a rule, the point on the concentration scale where inhibition reaches its midpoint) came out at 19 µM on Phosphodiesterase 4 [1] and 112 µM at Phosphodiesterase 4 [2]. The Ratio at Phosphodiesterase 4 [3] was 0.17.

`COC(=O)CN(Cc1ccco1)S(=O)(=O)c1ccc(OC)c(OC)c1` showed an IC50 on Phosphodiesterase 4 [1] of 10 µM. On Phosphodiesterase 4 [4], the inhibition – broadly, the percentage by which the read-out fell short of the control – amounted to 23%. In addition, the Ratio at Phosphodiesterase 4 [3] was less than 1.

Turning to `COc1ccc(S(=O)(=O)N(Cc2cccnc2)S(C)(=O)=O)cc1OC1CCCC1`, the IC50 came out at 2 µM at Phosphodiesterase 4 [1] and 4.5 µM on Phosphodiesterase 4 [2]. Further, the Ratio on Phosphodiesterase 4 [3] was determined as 0.44.

On to `CCCN(Cc1ccc(C(=O)NC)cc1)S(=O)(=O)c1ccc(OC)c(OC)c1`, for which the IC50 at Phosphodiesterase 4 [1] worked out at 1.9 µM; at Phosphodiesterase 4 [2], 4.3 µM. The Ratio at Phosphodiesterase 4 [3] was 0.44.

`COc1ccc(S(=O)(=O)n2c(=O)cc(-c3ccccc3)c3ccccc32)cc1OC` came in with an inhibition at Phosphodiesterase 4 [5] of 14%. This compound also yielded an IC50 against Phosphodiesterase 4 [6] of 0.5 µM.

On to `COc1ccc(S(=O)(=O)N(CC#N)Cc2ccco2)cc1OC`, for which the inhibition against Phosphodiesterase 4 [7] stood at 30%; on Phosphodiesterase 4 [5], 36%. Also, the Ratio at Phosphodiesterase 4 [3] was greater than 1.

Regarding `COc1ccc(C2CNC(=O)C2)cc1OC1CCCC1` (stereo unspecified) [ROLIPRAM], the figures for the inhibition in assay [8] and in assay [10] were 28% and 27%, respectively. The compound also gave an IC50 against Phosphodiesterase 1 [9] greater than 200 µM.

For the compound `COc1ccc2c(c1)C(NS(=O)(=O)c1ccc(OC)c(OC)c1)CC2` (stereo unspecified), the IC50 on Phosphodiesterase 4 [1] amounted to 2.5 µM. The Ratio on Phosphodiesterase 4 [3] is less than 0.25. The same compound showed an inhibition at Phosphodiesterase 4 [5] of 2%.

With `COc1ccc(S(=O)(=O)NC2CCc3ccccc32)cc1OC` (stereo unspecified), the IC50 at Phosphodiesterase 4 [1] was determined as 6 µM. On Phosphodiesterase 4 [3], the Ratio was less than 0.6. On Phosphodiesterase 4 [5], this compound had an inhibition of 12%.

As for `COc1ccc(C(=O)N2CCCc3ccccc32)cc1OC`, the half-inhibitory concentration (IC50) on Phosphodiesterase 4 [1] came to 20 µM. Also, the Ratio on Phosphodiesterase 4 [3] is less than 1. For the same compound, the inhibition in assay [11] stood at 21%; in assay [12] it was 12%; at Phosphodiesterase 4 [5], 15%; against Phosphodiesterase 1 [13] it was 14%; in [10], 31%.

`COc1ccc(S(=O)(=O)n2c(-c3ccccc3)cc3ncccc3c2=O)cc1OC` displayed an inhibition on Phosphodiesterase 4 [5] of 20%. The IC50 against Phosphodiesterase 4 [6] turned out to be 1.5 µM.

Compound `COc1ccc(S(=O)(=O)N(Cc2ccccn2)C2CCc3ccccc32)cc1OC` (stereo unspecified) yielded an IC50 on Phosphodiesterase 4 [1] of 5.3 µM. At Phosphodiesterase 4 [3], the Ratio was less than 0.5. The compound further showed an inhibition at Phosphodiesterase 4 [5] of 12%.

As to `COc1ccc(S(=O)(=O)n2c(-c3ccccc3)cc3ccccc3c2=O)cc1OC`, the inhibition on Phosphodiesterase 4 [5] came to 31%. For the same compound, the IC50 against Phosphodiesterase 4 [6] came to 0.6 µM.

Compound `COc1ccc(S(=O)(=O)N(CCC#N)C2CCc3ccccc32)cc1OC` (stereo unspecified) returned an IC50 at Phosphodiesterase 4 [1] of 4.1 µM. Also, the Ratio at Phosphodiesterase 4 [3] is less than 0.4. Besides, on Phosphodiesterase 4 [5], the inhibition worked out at 26%.

Take `COc1ccc(S(=O)(=O)N(CCC#N)Cc2ccco2)cc1OC`: on Phosphodiesterase 4 [1], the IC50 came to 10 µM. Further, at Phosphodiesterase 4 [3], the Ratio was less than 1. At Phosphodiesterase 4 [5], this compound returned an inhibition of 37%.

On to `CCCN(Cc1ccco1)S(=O)(=O)c1ccc(OC)c(OC)c1`, for which the IC50 at Phosphodiesterase 4 [1] stood at 1.5 µM; on Phosphodiesterase 4 [2], 15 µM. In addition, on Phosphodiesterase 4 [3], the Ratio worked out at 0.1.

Regarding `COc1ccc(S(=O)(=O)N(Cc2ccccc2)Cc2ccccn2)cc1OC`, the IC50 at Phosphodiesterase 4 [1] stood at 7.8 µM. In addition, the Ratio at Phosphodiesterase 4 [3] is less than 0.7. At Phosphodiesterase 4 [5], this compound displayed an inhibition of 5%.

Regarding `COc1ccc(S(=O)(=O)n2ccc3ccccc3c2=O)cc1OC`, the IC50 on Phosphodiesterase 4 [14] is 4 µM; at Phosphodiesterase 4 [6] it was 0.5 µM.

`COc1ccc(S(=O)(=O)N2CCc3ccccc32)cc1OC` returned an IC50 at Phosphodiesterase 4 [1] of 4.3 µM. For the same compound, the Ratio at Phosphodiesterase 4 [3] is less than 0.43. Moreover, the inhibition on Phosphodiesterase 4 [5] worked out at 18%.

Regarding `COc1ccc(C(=O)NC2CCc3ccccc32)cc1OC` (stereo unspecified), the values for the IC50 on Phosphodiesterase 4 [1] and on Phosphodiesterase 4 [2] were 11 µM and 3 µM, respectively. Moreover, the Ratio on Phosphodiesterase 4 [3] came to 3.7. For the same compound, the inhibition in assay [11] stood at 37%; in assay [12] it was 24%; against Phosphodiesterase 1 [13], 14%; in assay [10], 53%.

With `COc1ccc(S(=O)(=O)N(CC(C)=O)Cc2ccco2)cc1OC`, the results for the IC50 on Phosphodiesterase 4 [1] and at Phosphodiesterase 4 [2] were 24 µM and 35 µM, respectively. Further, the Ratio on Phosphodiesterase 4 [3] was 0.69.

On Phosphodiesterase 4 [1], `COc1ccc(S(=O)(=O)N(CCCC#N)Cc2ccco2)cc1OC` showed an IC50 of 9 µM. The Ratio on Phosphodiesterase 4 [3] is less than 1. In addition, the inhibition at Phosphodiesterase 4 [5] is 37%.

In turn, `COc1ccc(S(=O)(=O)NC2CCCC2)cc1OC` yielded an IC50 on Phosphodiesterase 4 [1] of 100 µM. Further, the inhibition on Phosphodiesterase 4 [4] was 19%. On Phosphodiesterase 4 [3], the Ratio was less than 1.

As to `COc1ccc(S(=O)(=O)N(CCC#N)C2CCCc3ccccc32)cc1OC` (stereo unspecified), the IC50 on Phosphodiesterase 4 [1] came out at 6.4 µM. Also, at Phosphodiesterase 4 [3], the Ratio is less than 0.6. At Phosphodiesterase 4 [5], this compound came in with an inhibition of 30%.

As to `COc1ccc(S(=O)(=O)NCCC#N)cc1OC`, the IC50 on Phosphodiesterase 4 [2] is 50 µM; against Phosphodiesterase 4 [6] it was 17.6 µM.

Regarding `COc1ccc(S(=O)(=O)N(Cc2cccnc2)S(=O)(=O)CCNS(=O)(=O)c2ccccc2)cc1OC`, the IC50 on Phosphodiesterase 4 [1] stood at 3 µM; at Phosphodiesterase 4 [2], 24 µM. Also, on Phosphodiesterase 4 [3], the Ratio turned out to be 0.13.

Turning to `COc1ccc(S(=O)(=O)N(Cc2cccnc2)S(C)(=O)=O)cc1OC`, the IC50 on Phosphodiesterase 4 [1] is 6 µM; on Phosphodiesterase 4 [2] it was 50 µM. Also, on Phosphodiesterase 4 [3], the Ratio came out at 0.12.

As to `COc1ccc(S(=O)(=O)NCc2cccnc2)cc1OC`, the inhibition amounted to 39% on Phosphodiesterase 4 [15] and 41% at Phosphodiesterase 4 [4].

On to `COc1ccc(S(=O)(=O)N(CCC#N)Cc2ccco2)cc1OC1CCCC1`, for which, at Phosphodiesterase 4 [2], the IC50 amounted to 10 µM. Also, at Phosphodiesterase 4 [7], the inhibition is 32%. Moreover, on Phosphodiesterase 4 [3], the Ratio is greater than 1.

In turn, `COc1ccc(S(=O)(=O)N(Cc2cccnc2)C2CCc3ccccc32)cc1OC` (stereo unspecified) returned an IC50 at Phosphodiesterase 4 [1] of 9 µM. Further, the Ratio on Phosphodiesterase 4 [3] was less than 0.9. On Phosphodiesterase 4 [5], this compound had an inhibition of 20%.

On Phosphodiesterase 4 [1], `COc1ccc(S(=O)(=O)NC2CCc3cc(Cl)ccc32)cc1OC` (stereo unspecified) came in with an IC50 of 5.2 µM. For the same compound, the Ratio on Phosphodiesterase 4 [3] was less than 0.5. The compound further returned an inhibition on Phosphodiesterase 4 [5] of 12%.

For the compound `COc1ccc(S(=O)(=O)N(Cc2cccnc2)S(C)(=O)=O)cc1OCCCCCc1ccccc1`, the IC50 at Phosphodiesterase 4 [1] is 1.5 µM. Moreover, the Ratio at Phosphodiesterase 4 [3] was less than 1. For the same compound, the inhibition at Phosphodiesterase 4 [16] worked out at 18%.

For `COc1ccc(S(=O)(=O)N(Cc2ccccc2)Cc2cccnc2)cc1OC`, on Phosphodiesterase 4 [1], the IC50 was 5 µM. For the same compound, the Ratio at Phosphodiesterase 4 [3] was less than 1. In addition, at Phosphodiesterase 4 [17], the inhibition was 8%.
